Results published in patent US9636409B2, “Enzyme and receptor modulation using covalent conjugates of alpha,alpha-disubstituted glycine esters” (GlaxoSmithKline Intellectual Property Development Limited, priority 2008, dated 2017).
Where two headings read alike, the source gives them in different places.

Legend:
[1] = system: phosphorylation of MAPKAP-2 in U937 cells; test: p38 MAP Kinase cellular assay: inhibition of phosphorylation of MAPKAP2 in U937 cells; assay type: cell-based; conditions: for IC50: Homo sapiens, U-937, U937 monocyte cell line, read-out: Inhibition of phosphorylation of MAPKAP-2 in U937 cells (IC50, nM) (monocyte cell line)
Procedure: (§1) p38 MAP Kinase Cellular Assay: Inhibition of Phosphorylation of MAPKAP2
(§2) U937 or HUT78 cells were plated in RPMI 1640, and were incubated at 37° C., 5% CO2 for 18 hours. 10 mM stocks of compounds were diluted media/0.1% DMSO to give a log or semi-log dilution series. The wells for ‘no treatment’ and ‘anisomycin’ were treated with 0.1% DMSO only. The cells were incubated at 37° C., 5% CO2 for a further 4 hours. Anisomycin was added to all wells except ‘no treatment’ at a final concentration of 10 μM. The cells were incubated at 37° C., 5% CO2 for 30 minutes before harvest. Plates were stood on ice whilst harvesting, and all following steps were carried out at 4° C. The cells were pelleted at 1000 rpm for 10 minutes at 4° C., the media aspirated, and the pellet washed with cold PBS. The pellets were lysed in 120 μl of SDS lysis buffer (62.5 mM Tris, pH 6.8, 2% SDS, 10% glycerol, 50 mM DTT, with protease inhibitors and phosphatase inhibitors added according to the manufacturers' recommendations). After 30 minutes on ice, the samples were sonicated for 5 seconds before centrifugation at 13,000 rpm 4° C. for 10 minutes to remove cell debris. 10 μl of the resulting gel samples were loaded per lane on NOVEX 4-12% Bis-Tris MOPS gels. Membranes from western transfer of gels were blotted with anti-phospho MAPKAP2, anti-phospho HSP27 and anti GAPDH according to the manufacturers' Instructions. Signal was visualised using HRP-Hnked anti-rabbit or anti-mouse antibodies, ECL reagent and ECL film. IC50 values for the various compounds were visualised from the resulting photographic images, using both band-shift and signal intensity.

[2] = system: phosphorylation of MAPKAP-2 in HUT 78 cells; test: p38 MAP Kinase cellular assay: inhibition of phosphorylation of MAPKAP2 in HUT 78 cells; assay type: cell-based; conditions: for IC50: Homo sapiens, HuT78, HUT 78 non-monocyte cell line; for Ratio IC50s in HUT 78 to U937 cells: MAPKAP-2 phosphorylation IC50s
Procedure: as §1, §2

[3] = system: HUT 78 cells; test: HUT cell inhibition assay (WST-1 proliferation); assay type: cell-based; conditions: Table 5; for IC50: Homo sapiens, HuT78, HUT 78 cells; for Ratio IC50s in HUT 78 to U937 cells: proliferation IC50s
Procedure: (§3) U937 and HUT Cell Inhibition Assay
(§4) Cancer cell lines (U937 and HUT) growing in log phase were harvested and seeded at 1000-2000 cells/well (100 μl final volume) into 96-well tissue culture plates. Following 24 hours of growth cells were treated with compound. Plates were then re-Incubated for a further 72-96 hours before a WST-1 cell viability assay was conducted according to the suppliers (Roche Applied Science) instructions.
(§5) Data were expressed as a percentage inhibition of the control, measured in the absence of Inhibitor, as follows: % inhibition=100−[(S^i/S^o)×100] where S^i is the signal in the presence of Inhibitor and S^o s the signal in the presence of DMSO.
(§6) Dose response curves were generated from 8 concentrations (top final concentration 10 μM, with 3-fold dilutions), using 6 replicates.
(§7) IC50 values were determined by non-linear regression analysis, after fitting the results to the equation for sigmoidal dose response with variable slope (% activity against log concentration of compound), using Graphpad Prism software.

[4] = system: U937 cells; test: U937 cell inhibition assay (WST-1 proliferation); assay type: cell-based; conditions: for IC50: Homo sapiens, U-937; for Ratio cell IC50s to enzyme IC50: U937 proliferation IC50 to HDAC enzyme IC50; for potency in the cellular (U937 proliferation) assay compared with the parent compound: versus Compound IV
Procedure: as §3, §4, §5, §6, §7

[5] = molecular target: T1, recombinant hCE-1 (Homo sapiens, UniProt P23141); test: HCE-1 carboxylesterase assay; assay type: in vitro ADME; conditions: result in words
T1 sequence (P23141 18-567): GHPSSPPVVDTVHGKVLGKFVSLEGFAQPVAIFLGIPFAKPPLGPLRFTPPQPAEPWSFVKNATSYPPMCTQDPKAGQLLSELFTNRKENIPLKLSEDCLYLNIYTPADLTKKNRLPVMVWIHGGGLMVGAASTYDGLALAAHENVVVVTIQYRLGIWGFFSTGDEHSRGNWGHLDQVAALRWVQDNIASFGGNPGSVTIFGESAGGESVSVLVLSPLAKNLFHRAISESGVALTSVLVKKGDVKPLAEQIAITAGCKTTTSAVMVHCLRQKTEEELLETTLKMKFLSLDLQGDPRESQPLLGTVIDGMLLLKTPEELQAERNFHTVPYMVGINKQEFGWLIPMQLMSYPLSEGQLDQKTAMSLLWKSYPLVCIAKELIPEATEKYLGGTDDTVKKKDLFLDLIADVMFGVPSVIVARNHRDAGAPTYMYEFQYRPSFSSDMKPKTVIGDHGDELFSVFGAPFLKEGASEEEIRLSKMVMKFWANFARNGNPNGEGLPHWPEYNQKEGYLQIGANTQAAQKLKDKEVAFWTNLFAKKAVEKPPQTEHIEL
Procedure: HCE-1 Carboxylesterase Assay
Hydrolysis of esters to the corresponding carboxylic acids by hCE-1 can be measured using the following procedure. At zero time, 100 μl of recombinant hCE-1 at a concentration of 6 μg/mL in phosphate assay buffer (K2PO4 100 mM, KCl 40 mM, pH 7.4) was added to an equal volume of assay buffer containing 5 μM ester substrate. After thorough mixing, triplicate samples were incubated for 0, 20 or 80 minutes at 37° C. At the appropriate time, hydrolysis was stopped by the addition of 600 μl of acetonitrile. For zero time samples, the acetonitrile was added prior to the enzyme. The samples were analysed for the ester and its corresponding carboxylic acid at room temperature by LCMS (Sciex API 3000, HP1100 binary pump, CTC PAL). Chromatography was based on a […] (75×2.1 mm) column and a mobile phase of 5-95% acetonitrile in water/0.1% formic add. Levels of the acid, the hydrolysis product, after 80 minutes are expressed in ng/mL.

[6] = molecular target: histone deacetylase activity (HeLa nuclear extract); test: Histone deacetylase activity (Fluor de Lys, HeLa nuclear extract); assay type: biochemical; conditions: read-out: Inhibition of HDAC (IC50 nM)
Procedure: Histone Deacetylase Activity
The ability of compounds to inhibit histone deacetylase activities was measured using the commercially available HDAC fluorescent activity assay from Biomol. In brief, the Fluor de Lys™ substrate, a lysine with an epsilon-amino acetylation, is incubated with the source of histone deacetylase activity (HeLa nuclear extract) in the presence or absence of inhibitor. Deacetylation of the substrate sensitises the substrate to Fluor de Lys™ developer, which generates a fluorophore. Thus, incubation of the substrate with a source of HDAC activity results in an increase in signal that is diminished in the presence of an HDAC inhibitor.
Data are expressed as a percentage of the control, measured in the absence of inhibitor, with background signal being subtracted from all samples, as follows: % activity=[(S^i−B)/(S^o−B)]×100 where S^i is the signal in the presence of substrate, enzyme and Inhibitor, S^o is the signal in the presence of substrate, enzyme and the vehicle in which the inhibitor is dissolved, and B is the background signal measured in the absence of enzyme.
IC50 values were determined by non-linear regression analysis, after fitting the results of eight data points to the equation for sigmoidal dose response with variable slope (% activity against log concentration of Compound), using Graphpad Prism software.
Histone deacetylase activity from crude nuclear extract derived from HeLa cells was used for screening. The preparation, purchased from 4C (Seneffe, Belgium), was prepared from HeLa cells harvested whilst in exponential growth phase. The nuclear extract was prepared according to the methodology described by J. D. Dignam, Nucl. Acid. Res., 1983, 11, 1475-1489, snap frozen in liquid nitrogen and stored at −80° C. The final buffer composition was 20 mM Hepes, 100 mM KCl, 0.2 mM EDTA, 0.5 mM DTT, 0.2 mM PMSF and 20% (v/v) glycerol.

[7] = Table 4, head prints no unit, same values in Table 5 as IC50 nM, read-out: Inhibition of proliferation in U937 cells
[8] = Table 5, U937 cells, read-out: Inhibition of proliferation in U937 cells (IC50 nM)
[9] = Table 4, Acid = carboxylic acid hydrolysis product of the ester
[10] = Table 4, compound as such, Ester for Examples 7 and 9
[11] = Table 5, Acid = carboxylic acid hydrolysis product of the ester
[12] = Table 5, compound as such, Ester for Examples 7 and 9

Structure (SMILES) | IC50 ([1]; Table 2) [nM] | potency in monocytic versus non monocytic cell lines (MAPKAP-2 phosphorylation) ([1]; U937 versus HUT 78) [times] | IC50 ([2]; Table 2) [nM] | Ratio IC50s in HUT 78 to U937 cells ([2]; Table 2) | IC50 [3] [nM] | Ratio IC50s in HUT 78 to U937 cells [3] | IC50 [4, 7] [nM] | IC50 [4, 8] [nM] | Ratio cell IC50s to enzyme IC50 ([4]; Table 4) | potency in monocytic (U937) versus non monocytic (Hut78) cell lines (proliferation) [4] [times] | potency in the cellular (U937 proliferation) assay compared with the parent compound [4] | hydrolysis by hCE-1 [5] | IC50 [6, 9] [nM] | IC50 [6, 10] [nM] | IC50 [6, 11] [nM] | IC50 [6, 12] [nM] | IC50 ([1]; Table 3) [nM] | IC50 ([2]; Table 3) [nM] | Ratio IC50s in HUT 78 to U937 cells ([2]; Table 3)
Nc1c(C(=O)c2ccc(F)cc2F)ccc(=O)n1-c1ccc(CCNC2(C(=O)OC3CCCC3)CCCC2)cc1 [Example 3] | 100 | 100 | 10000 | 100 |  |  |  |  |  |  |  |  |  |  |  |  |  |  | 
O=C(CCc1ccc(CNC2(C(=O)OC3CCCC3)CCCC2)cc1)NO [Example 7, Cyclopentyl 1-({4-[3-(hydroxyamino)-3-oxopropyl]benzyl}amino)cyclopentanecarboxylate] |  |  |  |  | 6200 | 34 | 180 | 180 | 0.043 | 30 | significantly more potent than the parent compound | hydrolysed by hCE-1 | 6120 | 4200 | 6120 | 4200 |  |  | 
CC(C)CC(C)(NCc1ccc(CCC(=O)NO)cc1)C(=O)OC1CCCC1 (racemic) [Example 9, Cyclopentyl N-{4-[3-(hydroxyamino)-3-oxopropyl]benzyl}-2-methyl-D,L-leucinate] |  |  |  |  | 5500 | 30 | 190 | 190 | 0.04 | 30 | significantly more potent than the parent compound |  | 6240 | 4900 | 6240 | 4900 |  |  | 
Nc1c(C(=O)c2ccc(F)cc2F)ccc(=O)n1-c1c(F)cccc1F [Compound II, reference compound] |  |  |  |  |  |  |  |  |  |  |  |  |  |  |  |  | 10 | 10 | 1
